Values joined by “and” are separate entries in the source; they are usually repeats but may differ in a detail not shown here. Equal entries are not always repeated. Where two headings read alike, the source gives them in different places.
Tests used:
FIH^K106A = target: T1, FIH^K106A (Homo sapiens, UniProt Q9NWT6, K106A); experiment: Affinity-based fluorescence polarization (FP) assay with the FIH K106A variant, without and with irradiation; assay type: binding; details: for Ki: read-out: Binding affinity to FIH^K106A: Ki
T1 construct: encoding for full-length FIH with an N-terminal His6 tag or for FIH (K106A) with an N-terminal His6 tag; His6 (N); host or cells: Escherichia coli BL21
From the text: 4 (A) Light-induced click conjugation between NBA-ZG-2291 and FIH protein. (B) Light-induced binding affinity of NBA-ZG-2291 to FIH^ WT . (C) Light-induced binding affinity of NBA-ZG-2291 to FIH^ K106A . […] TEXT PRINTED IN THE PICTURE: (B) NBA-ZG-2291: Binding affinity to FIH^WT: Ki (nM): 414 ± 14 (Irradtion time (min): 0); Binding affinity to FIH^WT: Ki (nM): 74.1 ± 1.6 (Irradtion time (min): 15); Binding affinity to FIH^WT: Ki (nM): 46.7 ± 1.4 (Irradtion time (min): 30); Binding affinity to FIH^WT: Ki (nM): 33.2 ± 0.6 (Irradtion time (min): 60); Binding affinity to FIH^WT: Ki (nM): 30.2 ± 2.0 (Irradtion time (min): 90); Binding affinity to FIH^WT: Ki (nM): 32.1 ± 0.7 (Irradtion time (min): 120) | (B) Neg-1: Binding affinity to FIH^WT: Ki (nM): 423 ± 7 (Irradtion time (min): 0); Binding affinity to FIH^WT: Ki (nM): 408 ± 30 (Irradtion time (min): 15); Binding affinity to FIH^WT: Ki (nM): 459 ± 32 (Irradtion time (min): 30); Binding affinity to FIH^WT: Ki (nM): 427 ± 17 (Irradtion time (min): 60); Binding affinity to FIH^WT: Ki (nM): 396 ± 29 (Irradtion time (min): 90); Binding affinity to FIH^WT: Ki (nM): 428 ± 15 (Irradtion time (min): 120) | (B) Neg-2: Binding affinity to FIH^WT: Ki (nM): 742 ± 65 (Irradtion time (min): 0); Binding affinity to FIH^WT: Ki (nM): 799 ± 69 (Irradtion time (min): 15); Binding affinity to FIH^WT: Ki (nM): 758 ± 13 (Irradtion time (min): 30); Binding affinity to FIH^WT: Ki (nM): 744 ± 30 (Irradtion time (min): 60); Binding affinity to FIH^WT: Ki (nM): 788 ± 36 (Irradtion time (min): 90); Binding affinity to FIH^WT: Ki (nM): 786 ± 35 (Irradtion time (min): 120) | (C) NBA-ZG-2291: Binding affinity to FIH^K106A: Ki (nM): 442 ± 12 (Irradtion time (min): 0); Binding affinity to FIH^K106A: Ki (nM): 427 ± 22 (Irradtion time (min): 15); Binding affinity to FIH^K106A: Ki (nM): 426 ± 7 (Irradtion time (min): 30); Binding affinity to FIH^K106A: Ki (nM): 420 ± 11 (Irradtion time (min): 60); Binding affinity to FIH^K106A: Ki (nM): 418 ± 5 (Irradtion time (min): 90); Binding affinity to FIH^K106A: Ki (nM): 424 ± 12 (Irradtion time (min): 120) | (C) Neg-1: Binding affinity to FIH^K106A: Ki (nM): 271 ± 14 (Irradtion time (min): 0); Binding affinity to FIH^K106A: Ki (nM): 275 ± 15 (Irradtion time (min): 15); Binding affinity to FIH^K106A: Ki (nM): 268 ± 25 (Irradtion time (min): 30); Binding affinity to FIH^K106A: Ki (nM): 266 ± 22 (Irradtion time (min): 60); Binding affinity to FIH^K106A: Ki (nM): 264 ± 41 (Irradtion time (min): 90); Binding affinity to FIH^K106A: Ki (nM): 270 ± 3 (Irradtion time (min): 120) | (C) Neg-2: Binding affinity to FIH^K106A: Ki (nM): 567 ± 37 (Irradtion time (min): 0); Binding affinity to FIH^K106A: Ki (nM): 548 ± 61 (Irradtion time (min): 15); Binding affinity to FIH^K106A: Ki (nM): 521 ± 50 (Irradtion time (min): 30); Binding affinity to FIH^K106A: Ki (nM): 627 ± 17 (Irradtion time (min): 60); Binding affinity to FIH^K106A: Ki (nM): 565 ± 10 (Irradtion time (min): 90); Binding affinity to FIH^K106A: Ki (nM): 552 ± 38 (Irradtion time (min): 120) […]
To further verify the covalent binding between NBA-ZG-2291 and Lys106, the FIH^ K106A variant was produced and purified.
3. Experimental procedures
3.1 Fluorescence polarization (FP) assays1 with FIHWT and FIHK106A pET28a vectors encoding for full-length FIH with an N-terminal His6 tag or for FIH (K106A) with an N-terminal His6 tag were purchased from Nanjing Zoonbio Biotechnology. Both the FIHWT and FIHK106A protein were expressed from the respective plasmid in Escherichia coli BL21 at 20 °C for 16 h. E. coli cells were lysed and the lysate were clarified by centrifugation. His6-tagged FIHWT or FIHK106A was purified on a HisTrap affinity column (GE Healthcare) by elution with an imidazole gradient. The final purified proteins were stored in PBS buffer.
FP assays were carried out using 384 -well plates (#3575, Corning); the polarization signal was measured using a SPARK Multi-Mode Microplate Reader (Tecan). […]

Hep3B cells = experiment: Whole-genome RNA sequencing of treated Hep3B cells; assay type: cell-based; details: replicates B1, B2
Experimental: To confirm whether the effects of NBA-ZG-2291 on gene expression are FIH-dependent, we knocked down FIH using siRNA and compared the impact of NBA-ZG-2291 treatment and FIH knockdown (siFIH) on gene expression in Hep3B cells. Whole-genome expression profiling analysis was conducted in NBA-ZG-2291-treated Hep3B cells and FIH knockdown Hep3B cells, with DMSO-treated Hep3B cells serving as controls.

T1 sequence (Q9NWT6 whole entry K106A): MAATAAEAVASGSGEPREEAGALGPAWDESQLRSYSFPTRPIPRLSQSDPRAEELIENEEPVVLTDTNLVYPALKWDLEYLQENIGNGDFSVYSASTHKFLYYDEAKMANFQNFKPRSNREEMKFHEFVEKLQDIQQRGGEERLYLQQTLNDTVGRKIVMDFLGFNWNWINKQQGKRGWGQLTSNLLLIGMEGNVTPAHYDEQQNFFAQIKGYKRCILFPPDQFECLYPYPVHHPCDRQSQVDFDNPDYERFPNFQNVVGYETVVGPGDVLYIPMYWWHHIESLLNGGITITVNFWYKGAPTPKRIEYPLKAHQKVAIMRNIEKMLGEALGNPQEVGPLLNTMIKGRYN

O=C(O)CNC(=O)c1ncc(-c2cc(-c3ccc(CO)c([N+](=O)[O-])c3)no2)cc1O [NBA-ZG-2291]
Effect of irradiation time on binding affinity for the FIH^K106A variant (FIH^K106A; FP assay, varying irradiation times): remained unchanged
Ki (FIH^K106A; irradiation time 0 min): 442 ± 12 nM
Ki (FIH^K106A; irradiation time 15 min): 427 ± 22 nM
Ki (FIH^K106A; irradiation time 30 min): 426 ± 7 nM
Ki (FIH^K106A; irradiation time 60 min): 420 ± 11 nM
Ki (FIH^K106A; irradiation time 90 min): 418 ± 5 nM
Ki (FIH^K106A; irradiation time 120 min): 424 ± 12 nM
DPM1 expression (whole-genome RNA sequencing) (Hep3B cells): 3.9965 and 3.239
SCYL3 expression (whole-genome RNA sequencing) (Hep3B cells): 0.949 and 1.202
TNMD expression (whole-genome RNA sequencing) (Hep3B cells): 0
TSPAN6 expression (whole-genome RNA sequencing) (Hep3B cells): 7.032 and 6.946
